Like-named read-outs stand apart in the source and are kept apart here.
What was measured:
[1] = target: 70S ribosome; experiment: Fluorescence anisotropy binding to 70S ribosomes; settings: E. coli ribosomes
Description: (§1) After establishing the lack of stereospecificity in the binding of aminoglycosides to the A-site RNA constructs (FIG. 9A-C) where the binding affinity, KD, is about 0.1 μM to about 100 μM, the stereospecificity of aminoglycoside binding to intact ribosomes was determined. Both yeast and E. coli ribosomes were prepared and aminoglycoside binding was measured using fluorescence anisotropy methods. For example, fluorescence anisotropy methods recited in Wang, Y., and Rando, R. R. Chem. Biol. (1995) 2, 281-290; and Wang, Y., Hamasaki, K., and Rando, R. R. Biochemistry (1997) 36,768-779. CRP was used as the binding probe. […] Binding data reported herein for aminoglycoside compounds with eukaryotic yeast ribosomes are similar to binding data for said aminoglycoside compounds with ribosoimes in bacteria and with eukaryotic A-site rRNA constructs.
(§2) 5-Carboxytetramethylrhodamine-labeled paromomycin (CRP) and tobramycin (CRT) concentrations were determined spectroscopically at 550 nm using a molar extinction coefficient of 6.00×10 4 M −1 cm −1. Fluorescence anisotropy measurements were performed on a Perkin-Elmer LS-50B luminescence spectrometer equipped with a thermostat accurate to ±0.1° C. as indicated previously (Wang, Y., Hamasaki, K., & Rando, R. R. (1997) Biochemistry 36, 768-779). The tracer solution was excited at 550 nm and monitored at 580 nm. The integration time was 5 s. For every point, 6 measurements were taken, and their average values were used for calculation. Measurements were carried out in a buffer solution containing 150 mM NaCl, 5 mM KCl, 1 mM CaCl2, 1 mM MgCl2, and 20 mM HEPES (pH 7.5). Prior to measurements, RNA constructs were renatured by incubating in binding buffer {150 mM NaCl, 5 mM KCl, 1 mM CaCl2, 1 mM MgCl2, and 20 mM HEPES (pH 7.5)} for 3 minutes at 90° C. followed by slow cooling to 25° C.
(§3) Equation 1 was used for the determination of the dissociation constant (Kd) for the interactions between RNA or ribosome and CRP. A=A0+DA{(RNA)0+(CRP)0+Kd−({(RNA)0+(CRP)0+Kd}^2−4(RNA)0(CRP)0)½}/2 where A and A0 are the fluorescence anisotropy of CRP in the presence and absence of RNA, respectively, and DA is the difference between the fluorescence anisotropy of CRP in the presence of an extrapolated infinite concentration of RNA minus the fluorescence anisotropy in the absence of RNA. (RNA)0 and (CRP)0 are the initial concentrations of RNA and CRP, respectively.
(§4) Equation 2 is used for the calculation of the KD values in the competition binding assay. (aminoglycoside)0={KD(A−−A)/Kd(A−A0)+1}{(RNA)0−Kd(A−A0)/(A−−A)−(CRP)0(A−A0)/(A−−A)} where KD is the dissociation constant between the RNA and the aminoglycosides; (aminoglycoside)0 is the initial concentration of the aminoglycosides; AL is anisotropy of completely bound tracer. Both Kd and KD were determined by non-linear curve fitting using the equations described above, and are presented as mean values of three independent measurements.
The purification of E. coli (E600) 70S ribosomes was carried out according to the published procedure (Lazaro, E., van den Broek, L. A. G. M., Felix, A. S., Ottenheijm, H. C. J., Ballesta, J. P. G. (1991) Biochemistry 30, 9642-9648). E. coli MRE600 were grown for 12 h in 6L of LB medium (10 g trypton, 5 g yeast extract, 5 g NaCl per 1 L, pH 7.0) at 37° C. Crude ribosomes were precipitated from clarified supernatant by 4 h centrifugation at 25,000 rpm in Beckman SW 28 rotor at 4° C. The ribosome pellets were collected in 5 mL of buffer BR1, containing 10 mM HEPES, pH 7.5, 500 mM ammonium acetate, 100 mM magnesium chloride and 2.5 mM DTT. The ribosome suspension was centrifuged for 20 min at 15000 rpm to be clarified. The clarified sample was loaded over two layers of 20% and 40% sucrose in buffer BR1 and centrifuged for 18 hr at 19000 rpm in Beckman SW28 rotor at 4° C. […]

[2] = target: 80S ribosome; experiment: Fluorescence anisotropy binding to 80S ribosomes; parameters: species or system yeast (S. cerevisiae); settings: yeast ribosomes
Description: as §1, §2, §3, §4
The purification of yeast 80S ribosomes from S. cerevisiae strain YSB 758 was carried out according to the published procedure (Verschoor, A., Warner, J. R., Srivastava, S., Grassucci, R. A., & Frank, J. (1997) Nucl. Acid Res. 26, 655-661). S. cerevisiea YSB 758 were grown for 12 hrs at 30° C. in 2L of YPD medium, containing: 20 g bacto peptone, 20 g glucose, 10 g yeast extract and 0.15 g tryptophan per 1 L, pH 7.0. The cells were lysed by 5-10 cycles of 1 min vigorous shaking with glass beads with a vortex, followed by cooling on ice. Clarified cell extract (about 9 mL total, used in 6 portions in 1.5 mL aliqouts) was carefully loaded on top of 2 mL of a cushion, composed of 10% sucrose and 5% ammonium sulfate dissolved in buffer YR1 (20 mM HEPES pH=7.4, 16 mM magnesium chloride, 100 mM potassium chloride, 5 mM DTT, and 0.5 mM EDTA). The ribosomes were collected by centrifugation in Beckman TL100.3 rotor at 75000 rpm for 3 h. The supernatants were carefully discarded and ribosomes were collected in buffer YR1. […]

[3] = target: human A-site decoding region construct (H), L-RNA; experiment: Fluorescence anisotropy binding, L-RNA human A-site decoding region construct H
Source text: (§5) Experiments were designed to probe the stereospecificity of aminoglycoside binding to the RNA constructs shown in FIG. 9 because these small rRNA constructs mimic ribosomal decoding region RNA function. The three constructs shown include a bacterial 16S A-site rRNA construct (B) (27), its human counterpart (H), and an RNA aptamer (J6f1) selected to bind to the aminoglycoside tobramycin (12,15,16).
(§6) L-aminoglycoside binding to D-RNA sequences are energetically equivalent to binding the enantiotopic D-aminoglycoside to an L-RNA sequence. Initial binding experiments were carried out using enantiomerically pure L-RNA constructs, B, H, and J6f1 (FIG. 9A-C) and D-aminoglycoside compounds. Circular dichroism spectra of the purified constructs confirm the enantiomeric relationship of the corresponding D-RNA and L-RNA constructs (FIGS. 1A-C). The constructs were tested for aminoglycoside binding using the fluorescence anisotropy method described in Example 4. In these measurements, the fluorescent aminoglycoside CRP bearing a rhodamine chromaphore is used to monitor binding to the decoding region constructs (B and H) and fluorescent aminoglycoside CRT bearing a rhodamine chromaphore was used to monitor binding to RNA construct J6f1 (FIG. 9C). See, for example, Wang, Y. and Rando, R. R. Chem. Biol. (1995) 2, 281-290; Hamasaki, K., Killian, J. Cho, J., and Rando, R. R. Biochemistry (1998) 37, 656-663; and Cho, J. and Rando, R. R. (1999) Biochemistry 38, 8548-8554.
(§7) 5-Carboxytetramethylrhodamine-labeled paromomycin (CRP) and tobramycin (CRT) concentrations were determined spectroscopically at 550 nm using a molar extinction coefficient of 6.00×10 4 M −1 cm −1. Fluorescence anisotropy measurements were performed on a Perkin-Elmer LS-50B luminescence spectrometer equipped with a thermostat accurate to ±0.1° C. as indicated previously (Wang, Y., Hamasaki, K., & Rando, R. R. (1997) Biochemistry 36, 768-779). The tracer solution was excited at 550 nm and monitored at 580 nm. The integration time was 5 s. […]
as §3, with “(RNA)0 and (CRP)0 are the initial concentrations of RNA and CRP, respectively.” left out
(§8) Equation 2 is used for the calculation of the KD values in the competition binding assay. […] Both Kd and KD were determined by non-linear curve fitting using the equations described above, and are presented as mean values of three independent measurements.

[4] = target: bacterial 16S A-site rRNA construct (B), D-RNA; experiment: Fluorescence anisotropy binding, D-RNA bacterial A-site decoding region construct B
Source text: as §5, §6, §7
as §3, with “(RNA)0 and (CRP)0 are the initial concentrations of RNA and CRP, respectively.” left out
as §8

[5] = target: RNA aptamer J6f1, L-RNA; experiment: Fluorescence anisotropy binding, L-J6f1 tobramycin binding aptamer
Source text: as §5, §6, §2, §3, §8

[6] = target: human A-site decoding region construct (H), D-RNA; experiment: Fluorescence anisotropy binding, D-RNA human A-site decoding region construct H
Source text: as §5, §6, §7
as §3, with “(RNA)0 and (CRP)0 are the initial concentrations of RNA and CRP, respectively.” left out
as §8

[7] = target: bacterial 16S A-site rRNA construct (B), L-RNA; experiment: Fluorescence anisotropy binding, L-RNA bacterial A-site decoding region construct B
Source text: as §5, §6, §7
as §3, with “(RNA)0 and (CRP)0 are the initial concentrations of RNA and CRP, respectively.” left out
as §8

[8] = target: RNA aptamer J6f1, D-RNA; experiment: Fluorescence anisotropy binding, D-J6f1 tobramycin binding aptamer
Source text: as §5, §6, §7
as §3, with “(RNA)0 and (CRP)0 are the initial concentrations of RNA and CRP, respectively.” left out
as §8

[9] = test system: E. coli S30 extract, containing 70S ribosomes; experiment: In vitro protein translation (CAT mRNA, 35S methionine incorporation); assay type: biochemical; settings: quantitation of gel bands, read-out: IC50, concentration producing 50% inhibition of translation
Description: Protein translation was performed from chloramphenicol acetyl transferase (CAT) mRNA. […] A commercial E. coli ribosomal suspension was supplemented with an E. coli extract containing the required elements for translation. These include translation factors, tRNAs, and aminoacyl tRNA synthases. Plasmid, T7 RNA polymerase and amino acids were added to the reaction mixture, and both transcription and translation steps were performed in the same vial. The effects of the aminoglycosides on the translation process were evaluated by measuring the incorporation of ^35S methionine in the translated chloramphenicol acetyl transferase protein.
In vitro translation was performed by using PROTEINscript™-PRO (Ambion) kit. […] Reaction mixtures contained appropriate concentrations of antibiotic (neomycin B, D- and L-neamine). The protein was translated from CAT mRNA, transcribed from control DNA template containing CAT gene under control of the T7 promotor. The product, ˜25 kDa chloramphenicol acetyl transferase, was labeled during translation with 1 μCi ^35S methionine (New England Nuclear) per reaction (no cold methionine was added).
Following the translation, the samples were analyzed by electrophoresis on 4-20% SDS mini-gels (Invitrogen) for 1.5 h at 120V. Gels were fixed with 40% methanol/10% acetic acid and exposed to Molecular Dynamics phosphoimager plates, which were read on a Personal FX phosphoimager (Bio-Rad) and quantitated using QuantityOne™ software.

[10] = competition with CRP, read-out: Dissociation constant (KD) with 70S ribosome
[11] = competition with CRP, read-out: Dissociation constant (KD) with 80S ribosome
[12] = competition with CRP, read-out: Dissociation constant of aminoglycoside complex with L-H
[13] = competition with CRP, read-out: Dissociation constant of aminoglycoside complex with D-B
[14] = competition with CRT, read-out: Dissociation constant of aminoglycoside complex with L-J6f1
[15] = competition with CRP, read-out: Dissociation constant of aminoglycoside complex with D-H
[16] = competition with CRP, read-out: Dissociation constant of aminoglycoside complex with L-B
[17] = competition with CRT, read-out: Dissociation constant of aminoglycoside complex with D-J6f1

Molecule	Kd [1, 10] [nM]	Kd [2, 11] [nM]	Kd [3, 12] [nM]	Kd [4, 13] [nM]	Kd [5, 14] [nM]	Kd [6, 15] [nM]	Kd [7, 16] [nM]	further results
NCC1OC(OC2C(O)C(N)CC(N)C2O)C(N)C(O)C1O (single isomer, unassigned) [5-Isomer of L-Neamine (ent-2), 5-isomer of L-Neamine]	1550 ± 110	1530 ± 120	–	–	–	–	–	–
[H]/N=C(/N)N[C@H]1[C@H](O)[C@@H](O)[C@H](O[C@@H]2O[C@@H](C)[C@](O)(C=O)[C@H]2O[C@@H]2O[C@@H](CO)[C@H](O)[C@@H](O)[C@@H]2NC)[C@@H](N/C(N)=N\[H])[C@@H]1O [Streptomycin]	–	30500	–	–	–	–	–	Dissociation constant (KD) with 70S ribosome ([1]; competition with CRP): did not exhibit measurable binding
NCC1OC(OC2C(N)CC(N)C(O)C2O)C(N)C(O)C1O [6-Isomer of D-Neamine (3), 6-isomer of D-Neamine]	30700 ± 1700	22500 ± 1250	–	–	–	–	–	–
NC[C@@H]1O[C@H](O[C@H]2[C@@H](O)[C@H](O[C@@H]3[C@@H](O)[C@H](N)C[C@H](N)[C@H]3O[C@H]3O[C@H](CO)[C@@H](O)[C@H](O)[C@H]3N)O[C@@H]2CO)[C@H](N)[C@@H](O)[C@@H]1O [Paromomycin]	1410 ± 150	1970 ± 100	2760 ± 260	1650 ± 350	4600 ± 370	2200 ± 170	6380 ± 270	–
NCC1OC(OC2C(O)C(N)CC(N)C2O)C(N)C(O)C1O [5-Isomer of D-Neamine (2), 5-isomer of D-Neamine]	910 ± 130	2220 ± 110	–	–	–	–	–	–
NCC1OC(OC2C(N)CC(N)C(O)C2O)C(N)C(O)C1O (single isomer, unassigned) [4-Isomer of L-Neamine (ent-3), 4-isomer of L-Neamine]	6400 ± 870	33000 ± 5840	–	–	–	–	–	–
NC[C@H]1O[C@H](O[C@H]2[C@H](O)[C@@H](O[C@H]3O[C@H](CO)[C@@H](O)[C@H](N)[C@H]3O)[C@H](N)C[C@@H]2N)[C@H](N)C[C@@H]1O [Tobramycin]	1760 ± 380	3690 ± 310	3220 ± 260	1400 ± 240	2180 ± 230	1570 ± 210	4390 ± 370	Kd [8, 17]: 5.2 ± 0.42 nM; Kd ([8]; read-out: KD of tobramycin with RNA aptamer J6f1): 5 nM; Kd ([5]; competition with CRT, listed as tobramycin, read-out: Dissociation constant of aminoglycoside complex with L-J6f1): 2200 nM
Neomycin	140 ± 38	110 ± 14	1410 ± 14	52 ± 1.86	360 ± 21	260 ± 3.6	109 ± 4.6	IC50 [9]: 15000 nM; Kd ([1]; competition with CRP, listed as neomycin B, read-out: Dissociation constant (KD) with 70S ribosome): ~100 nM; Kd [8, 17]: 5590 ± 1390 nM
5-carboxytetramethyl rhodamine-labeled tobramycin [CRT]	–	–	–	–	–	–	–	Kd ([8]; direct binding of fluorescent tracer CRT, read-out: Dissociation constant of CRT complex with D-J6f1): 190 ± 11 nM; Kd ([5]; direct binding of fluorescent tracer CRT, read-out: Dissociation constant of CRT complex with L-J6f1): 200 ± 28 nM
5-carboxytetramethyl rhodamine-labeled paromomycin [CRP]	–	–	–	–	–	–	–	Kd ([1]; direct binding of CRP, read-out: Dissociation constant (Kd) of CRP with 70S Ribosome): 3.7 ± 1.1 nM; Kd ([3]; direct binding of fluorescent tracer CRP, read-out: Dissociation constant of CRP complex with L-H): 900 ± 76 nM; Kd ([4]; direct binding of fluorescent tracer CRP, read-out: Dissociation constant of CRP complex with D-B): 170 ± 17.5 nM; Kd ([6]; direct binding of fluorescent tracer CRP, read-out: Dissociation constant of CRP complex with D-H): 1360 ± 180 nM; Kd ([7]; direct binding of fluorescent tracer CRP, read-out: Dissociation constant of CRP complex with L-B): 224 ± 22.6 nM; Kd ([2]; direct binding of CRP, read-out: Dissociation constant (Kd) of CRP with 80S Ribosome): 3.2 ± 0.9 nM
